Values belong to the compound of their own block, whether it stands above or below them. Calls of active or inactive are those of the source. The rule behind the calls is not given here.
Experiments:
NCI-H460 [1] = assay: Inhibition of mitochondrial complex I NADH-ubiquinone oxidoreductase in human NCI-H460 cells at 1 uM incubated for 12 hrs by seahorse XF96 metabolic flux analyzer relative to control; assay type: cell-based
NCI-H460 [2] = assay: Inhibition of mitochondrial complex I NADH-ubiquinone oxidoreductase in human NCI-H460 cells assessed as reduction in NAD+/NADH ratio at 1 uM incubated for 12 hrs by WST-8 method relative to control; assay type: cell-based
NCI-H358 [3] = assay: Antiproliferative activity against human NCI-H358 cells with low-OXPHOS assessed as reduction in cell viability incubated for 5 days by CellTiter 96 cell proliferation assay; assay type: functional, cell-based; details: NCI-H358, 120 h
NCI-H460 [4] = assay: Antiproliferative activity against human NCI-H460 cells with high-OXPHOS assessed as reduction in cell viability incubated for 5 days by CellTiter 96 cell proliferation assay; assay type: functional, cell-based; details: NCI-H460, 120 h
NCI-H460 [5] = assay: Inhibition of mitochondrial complex II in human NCI-H460 cells at 1 uM incubated for 12 hrs by seahorse XF96 metabolic flux analyzer relative to control; assay type: cell-based
NCI-H460 [6] = assay: Inhibition of mitochondrial complex III in human NCI-H460 cells at 1 uM incubated for 12 hrs by seahorse XF96 metabolic flux analyzer relative to control; assay type: cell-based
NCI-H460 [7] = assay: Inhibition of mitochondrial complex IV in human NCI-H460 cells at 1 uM incubated for 12 hrs by seahorse XF96 metabolic flux analyzer relative to control; assay type: cell-based
NCI-H460 [8] = assay: Inhibition of mitochondrial complex I NADH-ubiquinone oxidoreductase in human NCI-H460 cells assessed as reduction in oxygen consumption rate at 1 uM incubated for 12 hrs in presence of medium supplemented with pyruvate by seahorse XF96 metabolic flux analyzer; assay type: cell-based
NCI-H441 [9] = assay: Inhibition of colony formation in human NCI-H441 cells with high-OXPHOS incubated for 7 days by crystal violet staining based analysis; assay type: functional, cell-based; details: dose 250-1000 nM, time 7.0 day
NCI-H460 [10] = assay: Inhibition of mitochondrial complex I NADH-ubiquinone oxidoreductase in human NCI-H460 cells assessed as reduction in oxygen consumption rate at 1 uM incubated for 12 hrs in presence of medium supplemented with succinate by seahorse XF96 metabolic flux analyzer; assay type: cell-based
NCI-H460 [11] = assay: Inhibition of mitochondrial complex I NADH-ubiquinone oxidoreductase in human NCI-H460 cells assessed as reduction in oxygen consumption rate at 1 uM incubated for 12 hrs in presence of medium supplemented with malate by seahorse XF96 metabolic flux analyzer; assay type: cell-based
NCI-H460 [12] = assay: Inhibition of mitochondrial complex I NADH-ubiquinone oxidoreductase in human NCI-H460 cells assessed as reduction in NAD+/NADH ratio at 1 uM incubated for 12 hrs by WST-8 method; assay type: cell-based
NCI-H358 [13] = assay: Inhibition of colony formation in human NCI-H358 cells low-OXPHOS at 250 to 1000 nM incubated for 7 days by crystal violet staining based analysis; assay type: functional, cell-based; details: dose 250-1000 nM, time 7.0 day
NCI-H460 [14] = assay: Inhibition of colony formation in human NCI-H460 cells with high-OXPHOS incubated for 7 days by crystal violet staining based analysis; assay type: functional, cell-based; details: dose 250-1000 nM, time 7.0 day
NCI-H441 [15] = assay: Antiproliferative activity against human NCI-H441 cells with high-OXPHOS assessed as reduction in cell viability incubated for 5 days by CellTiter 96 cell proliferation assay; assay type: functional, cell-based; details: NCI-H441, 120 h
A549 [16] = assay: Cytotoxicity against human A549 cells assessed as reduction in cell viability incubated for 72 hrs by CellTiter 96 cell proliferation assay; assay type: functional, cell-based; details: A549, 72 h
NCI-H460 [17] = assay: Induction of apoptosis in human NCI-H460 cells with high-OXPHOS harboring KRAS Q61H mutant assessed as early apoptotic cells at 500 nM incubated for 72 hrs by Annexin V-FITC/propidium iodide staining based flow cytometry analysis (reference value: 1.95%); assay type: functional
NCI-H460 [18] = assay: Induction of apoptosis in human NCI-H460 cells with high-OXPHOS harboring KRAS Q61H mutant assessed as late apoptotic cells at 500 nM incubated for 72 hrs by Annexin V-FITC/propidium iodide staining based flow cytometry analysis (reference value: 5.68%); assay type: functional
A549 [19] = assay: Induction of apoptosis in human Trametinib-resistant A549 cells with high-OXPHOS harboring KRAS G12S mutant assessed as early apoptotic cells at 500 nM incubated for 72 hrs by Annexin V-FITC/propidium iodide staining based flow cytometry analysis (reference value: 4.31%); assay type: functional
A549 [20] = assay: Cytotoxicity against human Trametinib-resistant A549 cells assessed as reduction in cell viability incubated for 72 hrs by CellTiter 96 cell proliferation assay; assay type: functional, cell-based; details: A549, 72 h
A549 [21] = assay: Induction of apoptosis in human Trametinib-resistant A549 cells with high-OXPHOS harboring KRAS G12S mutant assessed as late apoptotic cells at 500 nM incubated for 72 hrs by Annexin V-FITC/propidium iodide staining based flow cytometry analysis (reference value: 4.27%); assay type: functional

Compound: Cc1c(C(=O)N2CCN(Cc3cccc(OCC(F)(F)F)c3)CC2)nnn1Cc1ccc(C(=O)Nc2ccc(C(F)(F)F)cc2)nc1
inhibition (NCI-H460 [1]): 49.9%

Compound: Cc1c(C(=O)N2CCN(Cc3ccccc3OCC(F)(F)F)CC2)nnn1Cc1ccc(C(=O)Nc2ccc(C(F)(F)F)cc2)nc1
inhibition (NCI-H460 [1]): 6.7%

Compound: Cc1nnn(Cc2ccc(C(=O)Nc3ccc(OC(F)(F)F)cc3)nc2)c1C(=O)N1CCN(Cc2ccc(OCC(F)(F)F)cc2)CC1
inhibition (NCI-H460 [1]): 20.4%

Compound: Cc1nnn(Cc2ccc(C(=O)Nc3ccc(Br)cc3)nc2)c1C(=O)N1CCN(Cc2ccc(OCC(F)(F)F)cc2)CC1
inhibition (NCI-H460 [1]): 7.7%

Compound: Cc1c(C(=O)N2CCN(Cc3ccc(C(C)C)cc3)CC2)nnn1Cc1ccc(C(=O)Nc2ccc(C(F)(F)F)cc2)nc1
inhibition (NCI-H460 [1]): 36.7%

IC50 (NCI-H358 [3]): 588 nM
IC50 (NCI-H460 [4]): 10.6 nM
Compound: O=C(Nc1ccc(C(F)(F)F)cc1)c1ccc(Cn2cc(C(=O)N3CCN(Cc4ccc(OCC(F)(F)F)cc4)CC3)nn2)cn1
inhibition (NCI-H460 [2]): 65.7%
inhibition (NCI-H460 [1]): 52%
inhibition (NCI-H460 [5]): 7.4%
inhibition (NCI-H460 [6]): 26%
inhibition (NCI-H460 [7]): -2%

IC50 (NCI-H358 [3]): > 10000 nM
IC50 (NCI-H460 [4]): 257 nM
IC50 (NCI-H441 [15]): 169 nM
Compound: Cc1c(C(=O)N2CCN(Cc3ccc(OCC(F)(F)F)cc3)CC2)nnn1Cc1ccc(C(=O)Nc2cccc(C(F)(F)F)c2)nc1
inhibition (NCI-H460 [2]): 39.1%
inhibition (NCI-H460 [8]): Active
inhibition (NCI-H441 [9]): Dose-Dependent Effect
inhibition (NCI-H460 [1]): 41.2%
inhibition (NCI-H460 [5]): 1.2%
inhibition (NCI-H460 [10]): inactive
inhibition (NCI-H460 [11]): Active
inhibition (NCI-H460 [12]): Active
inhibition (NCI-H358 [13]): inactive
inhibition (NCI-H460 [6]): 14%
inhibition (NCI-H460 [7]): -0.1%
inhibition (NCI-H460 [14]): Dose-Dependent Effect

Compound: Cc1c(C(=O)N2CCN(C(=O)c3ccc(OC(F)(F)F)cc3)CC2)nnn1Cc1ccc(C(=O)Nc2ccc(C(F)(F)F)cc2)nc1
inhibition (NCI-H460 [1]): 43.8%

IC50 (NCI-H358 [3]): 856 nM
IC50 (NCI-H460 [4]): 6.3 nM
Compound: Cc1c(C(=O)N2CCN(Cc3ccc(OCC(F)(F)F)cc3)CC2)nnn1Cc1ccc(C(=O)Nc2ccc(OC(F)(F)F)cc2)nc1
inhibition (NCI-H460 [2]): 74.2%
inhibition (NCI-H460 [1]): 58.4%
inhibition (NCI-H460 [5]): 8.8%
inhibition (NCI-H460 [6]): 9%
inhibition (NCI-H460 [7]): -6.7%

Compound: CC(=O)Nc1cccc(-n2c(=O)n(C3CC3)c(=O)c3c(Nc4ccc(I)cc4F)n(C)c(=O)c(C)c32)c1 [TRAMETINIB]
IC50 (A549 [16]): 296 nM
Activity (NCI-H460 [17]): 2.51%
Activity (NCI-H460 [18]): 8.3%
Activity (A549 [19]): 6.94%
IC50 (A549 [20]): 38100 nM
Activity (A549 [21]): 15.6%

Compound: Cc1c(C(=O)N2CCN(Cc3ccc(OCC(F)(F)F)cc3)CC2)nnn1Cc1ccc(C(=O)Nc2ccccc2C(F)(F)F)nc1
inhibition (NCI-H460 [1]): 36.3%

IC50 (NCI-H358 [3]): 605 nM
IC50 (NCI-H460 [4]): 3.8 nM
Compound: O=C(Nc1ccc(C(F)(F)F)cc1)c1ccc(Cn2nnc(C(=O)N3CCN(Cc4ccc(OCC(F)(F)F)cc4)CC3)c2C(F)(F)F)cn1
inhibition (NCI-H460 [2]): 85.1%
inhibition (NCI-H460 [1]): 59.3%
inhibition (NCI-H460 [5]): 4.7%
inhibition (NCI-H460 [6]): 12.1%
inhibition (NCI-H460 [7]): 1.6%

Compound: Cc1c(C(=O)N2CCN(Cc3ccc(OCC(F)(F)F)cc3)CC2)nnn1Cc1ccc(C(=O)Nc2ccc(C(C)(C)C)cc2)nc1
inhibition (NCI-H460 [1]): 45%

IC50 (NCI-H358 [3]): > 1000 nM
IC50 (NCI-H460 [4]): 25.6 nM
Compound: Cc1c(C(=O)N2CCN(Cc3ccc(OCC(F)(F)F)cc3)CC2)nnn1Cc1ccc(C(=O)Nc2ccc3ccccc3c2)nc1
inhibition (NCI-H460 [2]): 57.9%
inhibition (NCI-H460 [1]): 52.3%
inhibition (NCI-H460 [5]): 7%
inhibition (NCI-H460 [6]): 11%
inhibition (NCI-H460 [7]): 3.9%

Compound: Cc1ccc(NC(=O)c2ccc(Cn3nnc(C(=O)N4CCN(Cc5ccc(OCC(F)(F)F)cc5)CC4)c3C)cn2)cc1
inhibition (NCI-H460 [1]): 47.9%

Compound: Cc1nnn(Cc2ccc(C(=O)Nc3ccc(F)cc3)nc2)c1C(=O)N1CCN(Cc2ccc(OCC(F)(F)F)cc2)CC1
inhibition (NCI-H460 [1]): 9%

IC50 (NCI-H358 [3]): > 1000 nM
IC50 (NCI-H460 [4]): 11.7 nM
Compound: Cc1c(C(=O)N2CCN(Cc3ccc(OCC(F)(F)F)cc3)CC2)nnn1Cc1ccc(C(=O)Nc2ccc(F)cc2)nc1
inhibition (NCI-H460 [2]): 72.5%
inhibition (NCI-H460 [1]): 54.2%
inhibition (NCI-H460 [5]): 9.4%
inhibition (NCI-H460 [6]): 2.6%
inhibition (NCI-H460 [7]): 26.6%

Source: ChEMBL document CHEMBL5380875, “Discovery of a Potent and Oral Available Complex I OXPHOS Inhibitor That Abrogates Tumor Growth and Circumvents MEKi Resistance” (J Med Chem, 2023)
